This is an account of results in US20040152746A1, “Treatment of scarring and related conditions using ppar-gamma activators” (priority 2001, published 2004).

Marks after values point to notes of the source that are not given here.

For this test, the system named is Human dermal fibroblasts differentiated to myofibroblasts with TGF-beta1. The experiment in a line: Myofibroblast number after treatment with pioglitazone (alpha-smooth muscle actin immunohistochemistry). It counts as cell-based. To be noted: 3 days differentiation medium with 1 ng/ml TGF-beta1, % positive cells/total cells, control 3.47. On the procedure:
Human dermal fibroblasts were cultured on sterile cover-slips and allowed to adhere for 24 hours in fibroblast medium, i.e. (1.0 ml L-Glutamine (200 mM; Gibco), 1.0 ml non-essential amino acids, NEAA(100×; Gibco), 1.0 ml penicillin/streptomycin (100×Gibco), 10 ml new-born calf serum, NBCS (Gibco), 87 ml Dulbecco's modified Eagle's Medium, DMEM (Gibco)). At confluence, the medium was changed to myofibroblast differentiation medium, i.e. 1.0 ml L-Glutamine (200 mM; Gibco), 1.0 ml non-essential amino acids, NEAA(100×; Gibco), 10 ml penicillin/streptomycin (100×Gibco), 1 ml ITS (Insulin, Transferrin, Selenium)(100×Gibco)) supplemented with 1 ng/ml TGF-beta1 (Sigma). Myofibroblast differentiation was allowed to proceed for 3 days either in the presence of variable concentrations of pioglitazone or without. Myofibroblast number was determined by immunohistochemistry according to the following protocol. Cells were washed in phosphate buffered saline (PBS), then fixed in 3% paraformaldehyde for 5 mins followed by quenching in 50 mM ammonium chloride. The cells were then washed and permeabilised with 0.2% Triton X-100 in PBS. All antibodies were diluted into 0.2% fish skin gelatin (FSG) (Sigma). Prior to antibody detection non-specific binding was blocked using 0.2% FSG in PBS. Mouse anti-human alpha-smooth muscle actin (Sigma) was diluted 1:100 and incubated with the cells for 45 mins followed by washing. Rabbit anti-mouse immunoglobulin horseradish-peroxidase secondary antibody was incubated for 30 mins. Visualisation used Fast-DAB (Sigma) according to manufacturer's instructions. Cells were counterstained with haemotoxylin. […] Haemotoxylin stained nuclei were counted by the software using size-exclusion parameters which excluded small and large debris. Accuracy was determined within the software using binary overlays of the counted objects to examine if any non-nuclei counts occurred or if any nuclei were missed. […] DAB positive cells were counted by hand on the captured images. Counts are expressed as % positive cells/total cells.

For the molecule `CCc1ccc(CCOc2ccc(CC3SC(=O)NC3=O)cc2)nc1` (stereo not drawn) [pioglitazone], the “% Myofibroblasts” value runs as follows: (0.1 μM pioglitazone, p < 0.05) 1.81* %; (1 μM pioglitazone, p < 0.005) 0.71** %; (10 μM pioglitazone, p < 0.005) 0.10** %.
